Experimental data reported in patent US20240116985A1, “STAPLED PEPTIDES AND METHODS THEREOF” (priority 2020, published 2024).
≈ marks a conversion by molar mass, not a printed value. Read-outs that look alike come from different tables or passages of the source.

Assays:
[1] = target: T1, full-length beta-Catenin (Uniprot ID P35222) (Homo sapiens, UniProt P35222); experiment: Fluorescence polarization IC50 (beta-catenin / 5FAM-TCF4 10-53 competition); format: binding
T1 construct: 10 nM full-length beta-Catenin (Uniprot ID P35222)
T1 sequence (P35222 1-781): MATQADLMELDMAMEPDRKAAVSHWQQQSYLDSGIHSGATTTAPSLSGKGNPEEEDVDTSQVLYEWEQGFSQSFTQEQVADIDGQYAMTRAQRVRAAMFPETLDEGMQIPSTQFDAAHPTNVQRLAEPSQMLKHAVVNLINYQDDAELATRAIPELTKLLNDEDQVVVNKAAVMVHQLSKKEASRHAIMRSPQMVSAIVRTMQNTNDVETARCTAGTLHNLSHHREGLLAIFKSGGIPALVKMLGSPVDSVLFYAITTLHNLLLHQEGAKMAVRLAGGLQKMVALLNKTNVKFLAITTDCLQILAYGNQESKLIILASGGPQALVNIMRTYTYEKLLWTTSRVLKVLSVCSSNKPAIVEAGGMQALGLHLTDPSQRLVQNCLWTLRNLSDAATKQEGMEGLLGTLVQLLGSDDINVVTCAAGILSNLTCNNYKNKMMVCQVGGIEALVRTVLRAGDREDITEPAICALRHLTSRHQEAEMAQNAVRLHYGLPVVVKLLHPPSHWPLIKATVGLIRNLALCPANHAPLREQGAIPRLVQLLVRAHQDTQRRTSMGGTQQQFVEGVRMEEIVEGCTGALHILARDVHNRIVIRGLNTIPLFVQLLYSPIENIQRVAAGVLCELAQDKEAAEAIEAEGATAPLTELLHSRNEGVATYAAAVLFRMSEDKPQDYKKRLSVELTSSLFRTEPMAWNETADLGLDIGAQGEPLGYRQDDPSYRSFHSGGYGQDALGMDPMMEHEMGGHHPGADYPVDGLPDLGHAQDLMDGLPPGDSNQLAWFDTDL

[2] = Solubility in PBS; format: physicochemical
How it was run: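 HPLC quantitation of peptide remaining in the PBS supernatant after ultracentrifugation, referenced to a 50 μM solution in DMSO.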

[3] = CHI Log D procedure; format: physicochemical; settings: pH 7.4
[4] = fluorescence polarization, beta-catenin, read-out: FP EC50

Row | Structure (SMILES) | IC50 [1, 4] [nM] | IC50 ([1]; read-out: beta-Catenin FP IC50) [nM] | Solubility [2] [µM] | CHI Log D [3]
1 | CC(=O)N1CCC[C@]12CC=CCCCC1(CCCC=CCCCOC(=O)N3CC[C@@](C(=O)N[C@@H](Cc4ccsc4)C(=O)N[C@@H](Cc4csc5ccccc45)C(=O)N[C@@H](CCC(N)=O)C(N)=O)(C3)NC(=O)[C@H](CC(N)=O)NC(=O)[C@H](Cc3ccccc3)NC(=O)[C@H](C)NC(=O)[C@H](C)NC(=O)[C@H](Cc3cccc(C(=O)O)c3)NC(=O)[C@H](CC(=O)O)NC1=O)NC(=O)[C@H](CC(C)(C)C)NC(=O)[C@H](CC(=O)O)NC2=O (stereo partly drawn) [I-976, Ac-PL3-Asp-Npg-B5-Asp-3COOHF-Ala-Ala-Phe-Asn-PyrS2-3Thi-BztA-Gln-NH2] | 399 | 399 | 50 (≈ 99.7 µg/mL) | 1.78
2 | CC(=O)N1CCC[C@]12CC=CCCCC1(CCCC=CCCCOC(=O)N3CC[C@@](C(=O)N[C@@H](Cc4ccsc4)C(=O)N[C@@H](Cc4csc5ccccc45)C(=O)N[C@@H](CCC(N)=O)C(N)=O)(C3)NC(=O)[C@H](CC(N)=O)NC(=O)[C@H](Cc3ccccc3)NC(=O)[C@H](C)NC(=O)[C@H](C)NC(=O)[C@H](Cc3cccc(C(=O)O)c3)NC(=O)[C@H](CC(=O)O)NC1=O)NC(=O)[C@H](CC(C)(C)C)NC(=O)[C@H](CC(=O)O)NC2=O (stereo partly drawn) [I-977, Ac-PL3-Asp-Npg-B5-Asp-3COOHF-Ala-Ala-Phe-Asn-PyrS2-3Thi-BztA-Gln-NH2] | 367 | 875 | 46 (≈ 91.7 µg/mL) | 1.87
3 | CC(=O)N1CCC[C@]12CC=CCCCC1(CCCC=CCCCOC(=O)N3CC[C@@](C(=O)N[C@@H](Cc4ccsc4)C(=O)N[C@@H](Cc4csc5ccccc45)C(=O)N[C@@H](CCC(N)=O)C(N)=O)(C3)NC(=O)[C@H]([C@@H](C)O)NC(=O)[C@H](Cc3ccccc3)NC(=O)[C@H](C)NC(=O)[C@H](C)NC(=O)[C@H](Cc3cccc(C(=O)O)c3)NC(=O)[C@H](CC(=O)O)NC1=O)NC(=O)[C@H](CC(C)(C)C)NC(=O)[C@H](CC(=O)O)NC2=O (stereo partly drawn) [I-980, Ac-PL3-Asp-Npg-B5-Asp-3COOHF-Ala-Ala-Phe-Thr-PyrS2-3Thi-BztA-Gln-NH2] | 221 | 221 | 19 (≈ 37.6 µg/mL) | 1.695
4 | CC(=O)N1CCC[C@]12CC=CCCCC1(CCCC=CCCCOC(=O)N3CC[C@@](C(=O)N[C@@H](Cc4ccsc4)C(=O)N[C@@H](Cc4csc5ccccc45)C(=O)N[C@@H](CCC(N)=O)C(N)=O)(C3)NC(=O)[C@H]([C@@H](C)O)NC(=O)[C@H](Cc3ccccc3)NC(=O)[C@H](C)NC(=O)[C@H](C)NC(=O)[C@H](Cc3cccc(C(=O)O)c3)NC(=O)[C@H](CC(=O)O)NC1=O)NC(=O)[C@H](CC(C)(C)C)NC(=O)[C@H](CC(=O)O)NC2=O (stereo partly drawn) [I-981, Ac-PL3-Asp-Npg-B5-Asp-3COOHF-Ala-Ala-Phe-Thr-PyrS2-3Thi-BztA-Gln-NH2] | 199 | 374 | 45 (≈ 89.2 µg/mL) | 1.761
5 | CC(=O)N1CCC[C@]12CC=CCCCC1(CCCC=CCCCOC(=O)N3CC[C@@](C(=O)N[C@@H](Cc4ccsc4)C(=O)N[C@@H](Cc4csc5ccccc45)C(=O)N[C@@H](CO)C(N)=O)(C3)NC(=O)[C@H](CO)NC(=O)[C@H](Cc3ccccc3)NC(=O)[C@H](C)NC(=O)[C@H](C)NC(=O)[C@H](Cc3cccc(C(=O)O)c3)NC(=O)[C@H](CC(=O)O)NC1=O)NC(=O)[C@H](CC(C)(C)C)NC(=O)[C@H](CC(=O)O)NC2=O (stereo partly drawn) [I-985, Ac-PL3-Asp-Npg-B5-Asp-3COOHF-Ala-Ala-Phe-Ser-PyrS2-3Thi-BztA-Ser-NH2] | 301 | 431 | 47 (≈ 90.5 µg/mL) | 1.87

Stronger by IC50 [1, 4], values ahead:

Row | IC50 [1, 4] [nM] | IC50 ([1]; read-out: beta-Catenin FP IC50) [nM] | Solubility [2] [µM] | CHI Log D [3] | Structure (SMILES)
6 | 190 | 190 | 16 (≈ 31.8 µg/mL) | 1.853 | CC(=O)N1CCC[C@]12CC=CCCCC1(CCCC=CCCCOC(=O)N3CC[C@@](C(=O)N[C@@H](Cc4ccsc4)C(=O)N[C@@H](Cc4csc5ccccc45)C(=O)N[C@@H](CO)C(N)=O)(C3)NC(=O)[C@H](Cc3ccccc3)NC(=O)[C@H](Cc3ccccc3)NC(=O)[C@H](C)NC(=O)[C@H](C)NC(=O)[C@H](Cc3cccc(C(=O)O)c3)NC(=O)[C@H](CC(=O)O)NC1=O)NC(=O)[C@H](CC(C)(C)C)NC(=O)[C@H](CC(=O)O)NC2=O (stereo partly drawn) [I-982, Ac-PL3-Asp-Npg-B5-Asp-3COOHF-Ala-Ala-Phe-Phe-PyrS2-3Thi-BztA-Ser-NH2]
7 | 118 | 118 | 10 (≈ 19.9 µg/mL) | 1.919 | CC(=O)N1CCC[C@]12CC=CCCCC1(CCCC=CCCCOC(=O)N3CC[C@@](C(=O)N[C@@H](Cc4ccsc4)C(=O)N[C@@H](Cc4csc5ccccc45)C(=O)N[C@@H](CO)C(N)=O)(C3)NC(=O)[C@H](Cc3ccccc3)NC(=O)[C@H](Cc3ccccc3)NC(=O)[C@H](C)NC(=O)[C@H](C)NC(=O)[C@H](Cc3cccc(C(=O)O)c3)NC(=O)[C@H](CC(=O)O)NC1=O)NC(=O)[C@H](CC(C)(C)C)NC(=O)[C@H](CC(=O)O)NC2=O (stereo partly drawn) [I-983, Ac-PL3-Asp-Npg-B5-Asp-3COOHF-Ala-Ala-Phe-Phe-PyrS2-3Thi-BztA-Ser-NH2]
8 | 179 | 179 | 45 (≈ 86.7 µg/mL) | 1.8 | CC(=O)N1CCC[C@]12CC=CCCCC1(CCCC=CCCCOC(=O)N3CC[C@@](C(=O)N[C@@H](Cc4ccsc4)C(=O)N[C@@H](Cc4csc5ccccc45)C(=O)N[C@@H](CO)C(N)=O)(C3)NC(=O)[C@H](CO)NC(=O)[C@H](Cc3ccccc3)NC(=O)[C@H](C)NC(=O)[C@H](C)NC(=O)[C@H](Cc3cccc(C(=O)O)c3)NC(=O)[C@H](CC(=O)O)NC1=O)NC(=O)[C@H](CC(C)(C)C)NC(=O)[C@H](CC(=O)O)NC2=O (stereo partly drawn) [I-984, Ac-PL3-Asp-Npg-B5-Asp-3COOHF-Ala-Ala-Phe-Ser-PyrS2-3Thi-BztA-Ser-NH2]
9 | 136 | 136 | 27 (≈ 52.7 µg/mL) | 1.855 | CC(=O)N1CCC[C@]12CC=CCCCC1(CCCC=CCCCOC(=O)N3CC[C@@](C(=O)N[C@@H](Cc4ccsc4)C(=O)N[C@@H](Cc4csc5ccccc45)C(=O)N[C@@H](CO)C(N)=O)(C3)NC(=O)[C@H](CC(C)C)NC(=O)[C@H](Cc3ccccc3)NC(=O)[C@H](C)NC(=O)[C@H](C)NC(=O)[C@H](Cc3cccc(C(=O)O)c3)NC(=O)[C@H](CC(=O)O)NC1=O)NC(=O)[C@H](CC(C)(C)C)NC(=O)[C@H](CC(=O)O)NC2=O (stereo partly drawn) [I-986, Ac-PL3-Asp-Npg-B5-Asp-3COOHF-Ala-Ala-Phe-Leu-PyrS2-3Thi-BztA-Ser-NH2]
10 | 112 | 112 | 10 (≈ 19.5 µg/mL) | 2.115 | CC(=O)N1CCC[C@]12CC=CCCCC1(CCCC=CCCCOC(=O)N3CC[C@@](C(=O)N[C@@H](Cc4ccsc4)C(=O)N[C@@H](Cc4csc5ccccc45)C(=O)N[C@@H](CO)C(N)=O)(C3)NC(=O)[C@H](CC(C)C)NC(=O)[C@H](Cc3ccccc3)NC(=O)[C@H](C)NC(=O)[C@H](C)NC(=O)[C@H](Cc3cccc(C(=O)O)c3)NC(=O)[C@H](CC(=O)O)NC1=O)NC(=O)[C@H](CC(C)(C)C)NC(=O)[C@H](CC(=O)O)NC2=O (stereo partly drawn) [I-987, Ac-PL3-Asp-Npg-B5-Asp-3COOHF-Ala-Ala-Phe-Leu-PyrS2-3Thi-BztA-Ser-NH2]
